Experimental data: patent US20110015162A1, “15,16-Methylene-17-hydroxy-19-nor-21-carboxylic acid-steroid Y-lactone derivative, use thereof and medicinal products containing the derivative” (Bayer Schering Pharma Aktiengesellschaft, priority 2007, published 2011)
Where two headings read alike, the source gives them in different places.

What was measured:
androgen receptor [1] = target: T1, androgen receptor (Homo sapiens, UniProt P10275); test: Androgenic/antiandrogenic action by transactivation test (PC3 reporter cells); assay type: cell-based; design: expressed in transfected cells; host or cells: PC3 cells
T1 sequence (P10275 1-920): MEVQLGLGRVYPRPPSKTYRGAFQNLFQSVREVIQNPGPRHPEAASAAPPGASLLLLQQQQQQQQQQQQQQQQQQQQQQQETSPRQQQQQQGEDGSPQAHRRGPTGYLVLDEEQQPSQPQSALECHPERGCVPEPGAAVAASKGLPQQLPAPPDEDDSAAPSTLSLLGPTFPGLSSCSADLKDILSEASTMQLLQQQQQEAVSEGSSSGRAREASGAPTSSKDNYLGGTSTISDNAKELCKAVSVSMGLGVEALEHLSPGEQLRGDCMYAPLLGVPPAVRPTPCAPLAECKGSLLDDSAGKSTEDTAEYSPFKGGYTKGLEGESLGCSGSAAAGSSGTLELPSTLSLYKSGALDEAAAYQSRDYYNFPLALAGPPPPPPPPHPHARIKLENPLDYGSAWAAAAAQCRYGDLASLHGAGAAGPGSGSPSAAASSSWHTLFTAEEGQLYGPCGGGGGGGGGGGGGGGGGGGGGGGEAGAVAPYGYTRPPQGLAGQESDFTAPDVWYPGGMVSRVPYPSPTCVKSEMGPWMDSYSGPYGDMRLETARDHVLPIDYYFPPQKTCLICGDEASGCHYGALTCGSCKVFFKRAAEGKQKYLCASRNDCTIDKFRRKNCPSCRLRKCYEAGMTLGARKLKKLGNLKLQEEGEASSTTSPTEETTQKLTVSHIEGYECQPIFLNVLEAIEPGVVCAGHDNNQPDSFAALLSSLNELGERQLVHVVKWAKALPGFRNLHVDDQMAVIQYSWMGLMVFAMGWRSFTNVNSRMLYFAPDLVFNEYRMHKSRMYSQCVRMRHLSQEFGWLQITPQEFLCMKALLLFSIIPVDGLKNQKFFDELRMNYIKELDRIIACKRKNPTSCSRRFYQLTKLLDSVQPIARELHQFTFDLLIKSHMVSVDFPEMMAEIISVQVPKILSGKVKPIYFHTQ
Protocol: (§1) The test compounds were added eight hours later, and the cells were incubated with the compounds for 16 hours. The tests were carried out in triplicate. At the end of incubation the medium containing the effector was removed and replaced with lysis buffer. After luciferase assay substrate (Promega, #E1501) had been added, the 96-well plates were then put in a microplate luminometer (Pherastar, BMG Labtech), and the luminescence was measured. The IC50 values were evaluated using software for calculating dose-effect relations.
6. Determination of Androgenic/Antiandrogenic Action by Means of Transactivation Tests:
The androgenic/antiandrogenic action of the test substances was determined as for the transactivation tests described above.
The following modifications were made: In this case reporter cell lines were used (PC3 cells) that express the androgen receptor, and a reporter construct that contains luciferase under the control of a steroid hormone-responsive promoter.
For determination of the antiandrogenic efficacy, 0.05 nM R1881 was added to the cells, in order to achieve almost maximum stimulation of the reporter gene.

androgen receptor [2] = target: T1, androgen receptor; test: Androgen receptor binding test; design: expressed in transfected cells; conditions: reference substance 3H-testosterone
[3] = target: T2, mineralocorticoid receptor (Homo sapiens, UniProt P08235); test: Antimineralocorticoid action by transactivation test (MDCK reporter cells); assay type: cell-based; design: expressed in transfected cells; host or cells: MDCK cells; conditions: for Emax: read-out: Mineralocorticoid receptor Antagonism efficacy;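 on Emax: percent inhibition of the aldosterone-stimulated reporter signal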;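 on Mineralocorticoid receptor Antagonism efficacy: percent inhibition of the aldosterone-stimulated reporter signal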
T2 sequence (P08235 1-984): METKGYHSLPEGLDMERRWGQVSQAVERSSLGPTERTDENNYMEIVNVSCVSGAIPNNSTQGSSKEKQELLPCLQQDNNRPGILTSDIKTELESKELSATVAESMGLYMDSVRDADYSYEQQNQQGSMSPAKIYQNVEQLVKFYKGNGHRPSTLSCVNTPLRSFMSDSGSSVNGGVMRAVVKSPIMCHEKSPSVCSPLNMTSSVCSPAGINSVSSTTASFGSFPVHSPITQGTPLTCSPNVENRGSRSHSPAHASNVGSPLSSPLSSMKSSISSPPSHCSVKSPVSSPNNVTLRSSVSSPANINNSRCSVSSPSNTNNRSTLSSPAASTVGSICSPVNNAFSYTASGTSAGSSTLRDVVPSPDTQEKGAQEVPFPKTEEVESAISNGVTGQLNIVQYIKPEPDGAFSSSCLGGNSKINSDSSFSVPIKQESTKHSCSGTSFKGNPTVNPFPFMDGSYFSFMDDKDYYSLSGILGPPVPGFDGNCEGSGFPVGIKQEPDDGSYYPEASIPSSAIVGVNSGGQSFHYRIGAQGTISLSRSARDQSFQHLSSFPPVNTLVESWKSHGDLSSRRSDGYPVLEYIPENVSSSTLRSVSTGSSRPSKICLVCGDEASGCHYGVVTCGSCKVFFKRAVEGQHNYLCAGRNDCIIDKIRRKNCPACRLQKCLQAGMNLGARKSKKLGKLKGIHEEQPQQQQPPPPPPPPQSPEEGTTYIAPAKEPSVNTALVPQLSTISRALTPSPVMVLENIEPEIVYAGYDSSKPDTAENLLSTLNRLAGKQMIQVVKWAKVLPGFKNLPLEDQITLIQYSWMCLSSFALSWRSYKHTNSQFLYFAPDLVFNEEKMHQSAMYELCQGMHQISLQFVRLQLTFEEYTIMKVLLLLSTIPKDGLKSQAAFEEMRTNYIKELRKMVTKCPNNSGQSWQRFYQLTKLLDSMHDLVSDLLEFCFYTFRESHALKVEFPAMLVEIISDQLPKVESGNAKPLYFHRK
Protocol: as §1
5. Determination of Antimineralocorticoid Action by Means of Transactivation Tests:
The antimineralocorticoid activity of the test substances was determined as for the transactivation tests described above.
The following modifications were undertaken: In this case reporter cell lines were used (MDCK cells) that express the human mineralocorticoid receptor, and transiently contain a reporter construct that contains luciferase under the control of a steroid hormone-responsive promoter.

[4] = PC-3, read-out: Androgen receptor Agonism efficacy
[5] = PC-3, read-out: Androgen receptor Antagonism efficacy

SMILES | EC50 (androgen receptor [1]) [nM] | Emax (androgen receptor [1]; [4]) [%] | Emax (androgen receptor [1]; [5]) [%] | Androgen receptor Competition factor (androgen receptor [2]) | IC50 [3] [nM] | Emax ([3]; MDCK) [%] | IC50 (androgen receptor [1]) [nM] | IC50 ([3]; MDCK cells, with 1 nM aldosterone, read-out: Mineralocorticoid receptor Antagonism IC50) [nM] | Emax ([3]; MDCK cells, with 1 nM aldosterone) [%]
C[C@]12CC[C@H]3[C@@H](CCC4=CC(=O)CC[C@@H]43)[C@@H]1[C@@H]1C[C@@H]1[C@@]21C=CC(=O)O1 [Example 19, 17β-Hydroxy-15β,16β-methylene-19-nor-17α-pregna-4,20(Z)-dien-3-one-21-carboxylic acid γ-lactone] | 5.3 | 87.5 | 5 | 6.4 | 62 | 92.8 |  |  | 
C[C@]12CC[C@H]3[C@@H](CC4(CC4)C4=CC(=O)CC[C@@H]43)[C@@H]1[C@@H]1C[C@@H]1[C@@]21C=CC(=O)O1 [Example 22, 6,6-(1,2-Ethanediyl)-17β-hydroxy-15β,16β-methylene-19-nor-17α-pregna-4,20(Z)dien-3-one-21-carboxylic acid γ-lactone] | 1.7 | 98.6 | 5 | 2.0 | 49 | 91.2 |  |  | 
C[C@]12CC[C@H]3[C@@H](CCC4=C(Cl)C(=O)CC[C@@H]43)[C@@H]1[C@@H]1C[C@@H]1[C@@]21C=CC(=O)O1 [Example 27, 4-Chloro-17β-hydroxy-15β,16β-methylene-19-nor-17α-pregna-4,20(Z)-dien-3-one-21-carboxylic acid γ-lactone] | 69.5 | 66.9 | 5 | 36.4 | 1000 | 5 |  |  | 
C[C@]12CC[C@H]3[C@@H](C=CC4=CC(=O)CC[C@@H]43)[C@@H]1[C@H]1C[C@H]1[C@@]21C=CC(=O)O1 [Example 13, 17β-Hydroxy-15α,16α-methylene-19-nor-17α-pregna-4,6,20(Z)-trien-3-one-21-carboxylic acid γ-lactone] | 120 | 14.4 | 47.4 | 163.2 |  |  | 100 | 12 | 116
CC[C@]12CC[C@H]3[C@@H]([C@H]4C[C@H]4C4=CC(=O)CC[C@@H]43)[C@@H]1[C@@H]1C[C@@H]1[C@@]21C=CC(=O)O1 [Example 1, 6β,7β;15β,16β-Bismethylene-17β-hydroxy-18-methyl-19-nor-17α-pregna-4,20(Z)-dien-3-one-21-carboxylic acid γ-lactone] | 100 | 46.3 | 5 | 30.6 | 10 | 79.5 |  |  | 
C=C[C@@H]1CC2=CC(=O)CC[C@@H]2[C@H]2CC[C@@]3(CC)[C@@H]([C@@H]4C[C@@H]4[C@@]34C=CC(=O)O4)[C@@H]21 [Example 6A, 17β-Hydroxy-7α-vinyl-18-methyl-15β,16β-methylene-19-nor-17α-pregna-4,20(Z)-dien-3-one-21-carboxylic acid γ-lactone] | 0.98 | 118 | 5 | 1.7 | 9 | 102 |  |  | 
C=C[C@@H]1CC2=CC(=O)CC[C@@H]2[C@H]2CC[C@@]3(C)[C@@H]([C@@H]4C[C@@H]4[C@@]34C=CC(=O)O4)[C@@H]21 [Example 25A, 17β-Hydroxy-15β,16β-methylene-7α-vinyl-19-nor-17α-pregna-4,20(Z)-dien-3-one-21-carboxylic acid γ-lactone] | 1.83 | 73.3 | 5 | 1.4 | 910 | 84.1 |  |  | 
CC[C@]12CC[C@H]3[C@H]([C@@H]1[C@@H]1C[C@@H]1[C@@]21C=CC(=O)O1)[C@H](C)CC1=CC(=O)CC[C@@H]13 [Example 4A, 7α,18-Bismethyl-17β-hydroxy-15β,16β-methylene-19-nor-17α-pregna-4,20(Z)-dien-3-one-21-carboxylic acid γ-lactone] | 3 | 97.5 | 5 | 2.6 | 3 | 99.9 |  |  | 
CC[C@]12CC[C@H]3[C@@H]([C@@H]4C[C@@H]4C4=CC(=O)CC[C@@H]43)[C@@H]1[C@@H]1C[C@@H]1[C@@]21C=CC(=O)O1 [Example 2, 6α,7α;15β,16β-Bismethylene-17β-hydroxy-18-methyl-19-nor-17α-pregna-4,20(Z)-dien-3-one-21-carboxylic acid γ-lactone] | 130 | 32.6 | 5 | 49.6 | 230 | 112 |  |  | 
C[C@]12CC[C@H]3[C@H]([C@@H]1[C@H]1C[C@H]1[C@@]21C=CC(=O)O1)[C@H](C1CC1)CC1=CC(=O)CC[C@@H]13 [Example 17A, 17β-Hydroxy-7α-cyclopropyl-15α,16α-methylene-19-nor-17α-pregna-4,20(Z)-dien-3-one-21-carboxylic acid γ-lactone] | 23 | 40.8 | 33.7 | 5.2 | 89 | 115 | 11 |  | 
C[C@]12CC[C@H]3[C@@H](CCC4=CC(=O)CC[C@@H]43)[C@@H]1[C@H]1C[C@H]1[C@@]21C=CC(=O)O1 [Example 12, 17β-Hydroxy-15α,16α-methylene-19-nor-17α-pregna-4,20(Z)-dien-3-one-21-carboxylic acid γ-lactone] | 130 | 14.9 | 61.7 | 16.5 | 100 | 71.4 | 86 |  | 
